Where two headings read alike, the source gives them in different places.

In data set [1] the test system is PFHR9 cells. Briefly: Tolerability / toxicity in cell culture. It is filed as cell-based. The protocol:
(§1) PFHR9 cells (ATCC) were grown in Dulbecco’s Modified Eagle Medium (Gibco), supplemented with 10% heat-inactivated foetal bovine serum (Moregate) and 1% Penicillin Streptomycin (Gibco). As described previously, cells were seeded in 150 mm cell culture dishes and ECM was isolated. The concentration of the isolated ECM protein was measured (Direct Detect) and the yield was typically ~5 mg per dish. […] After 10 min, 100 μM bromide was added and the cross-link formation was started by adding 100 μM hydrogen peroxide. After 1 h at 37 °C, the reaction was stopped, by adding 1 mM sodium azide, and ECM was digested with 2 mg mL^−1 of collagenase type I (Worthington) for 48 h at 37 °C. […] Densitometric analyses of both dimer bands (Alliance Uvitec Cambridge imager) were used to determine the extent of inhibition of the cross-link formation. […] Once full confluence was reached, the medium was changed daily, and inhibitors were added at the indicated concentrations in 1 mL of medium for 7 days.

Data set [2] concerns the target T1, Human peroxidasin (PXDN) (Homo sapiens, UniProt Q92626).
T1 construct: the four immunoglobulin domains and the peroxidase domain (amino acid residue 246-1314); made in house; host or cells: transient transfection
T1 sequence (Q92626 246-1314): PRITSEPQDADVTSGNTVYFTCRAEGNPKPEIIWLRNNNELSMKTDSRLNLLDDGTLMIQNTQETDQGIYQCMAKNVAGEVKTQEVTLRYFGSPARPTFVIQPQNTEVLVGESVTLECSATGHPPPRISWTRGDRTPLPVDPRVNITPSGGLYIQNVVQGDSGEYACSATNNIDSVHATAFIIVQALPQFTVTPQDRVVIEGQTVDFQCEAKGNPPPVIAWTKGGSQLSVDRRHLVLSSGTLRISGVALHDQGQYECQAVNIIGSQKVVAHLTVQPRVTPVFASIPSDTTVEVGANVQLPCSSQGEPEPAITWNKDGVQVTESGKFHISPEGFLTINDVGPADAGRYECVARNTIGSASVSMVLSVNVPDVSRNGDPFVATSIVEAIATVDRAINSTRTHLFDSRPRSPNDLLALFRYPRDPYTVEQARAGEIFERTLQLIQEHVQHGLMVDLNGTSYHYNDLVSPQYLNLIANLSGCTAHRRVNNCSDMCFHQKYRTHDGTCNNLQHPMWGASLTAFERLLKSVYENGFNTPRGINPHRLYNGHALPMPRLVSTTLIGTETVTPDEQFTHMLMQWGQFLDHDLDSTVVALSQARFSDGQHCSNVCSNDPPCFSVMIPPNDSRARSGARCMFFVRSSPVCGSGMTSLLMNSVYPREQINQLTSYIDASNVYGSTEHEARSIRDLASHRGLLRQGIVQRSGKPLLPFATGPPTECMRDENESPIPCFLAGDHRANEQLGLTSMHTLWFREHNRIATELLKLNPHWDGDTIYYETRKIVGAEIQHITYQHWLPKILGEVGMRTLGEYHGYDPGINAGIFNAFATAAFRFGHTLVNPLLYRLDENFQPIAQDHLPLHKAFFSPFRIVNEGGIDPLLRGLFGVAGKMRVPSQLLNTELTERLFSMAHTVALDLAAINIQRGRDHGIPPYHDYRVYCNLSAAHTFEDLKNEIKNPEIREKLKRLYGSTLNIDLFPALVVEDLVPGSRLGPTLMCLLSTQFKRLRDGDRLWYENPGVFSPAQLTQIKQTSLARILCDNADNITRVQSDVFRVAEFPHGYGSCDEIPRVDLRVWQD
As to the kind of experiment: Reversibility of inactivation of immobilized PXDN (wash, then Amplex assay). The following applies: 10 min, washed four times. The class given is biochemical. The protocol: 200 ng of PXDN in 50 μL PBS was added per well of a Corning high-binding ELISA microplate for 2 h at room temperature. After four PBS washes, the respective inhibitors were added at a final concentration of 20 μM in phosphate buffer pH 7.4, before 10 μM of hydrogen peroxide was added in a final volume of 50 μL. In a control experiment, no hydrogen peroxide was added. After 10 min of incubation, the plates were washed four times with PBS and activity was measured as previously described, by adding 50 μL/well of 50 μM Amplex™ UltraRed Reagent, 20 μM hydrogen peroxide and 50 mM bromide in 50 mM phosphate buffer pH 7.4. The plate was incubated for 30 min in the dark at 37 °C before fluorescence was measured (λex 544 nm, λem 590 nm) and expressed as % activity of the untreated control.

In data set [3] the test system is collagen IV NCD sulfilimine cross-link formation in isolated ECM from PFHR9 cells. As to the kind of experiment: Inhibition of collagen IV cross-linking in decellularized extracellular matrix. The class given is biochemical. The protocol:
as §1, with “°C. The digest was spun (20 kg, RT, 20 min) and the extent of cross-linking of the NCD of collagen IV was determined by the resolution of the supernatant protein on a 12% sodium dodecyl-sulfate polyacrylamide gel electrophoresis (SDS-PAGE).” for “°C.”

The subject of data set [4] is collagen IV cross-link formation by PXDN. More on the design: method as in PMID 22842973. The following applies: read-out: IC50 inhibition of collagen IV cross-linking, previously published value; cited from earlier work.
Data set [5] concerns MPO. As to conditions: literature statement; cited from earlier work.

For `Oc1cc(O)cc(O)c1` [Phloroglucinol, 1,3,5-Trihydroxybenzene], the “tolerability in cell culture” value in data set [1] is “well tolerated in cell culture and does not impact cell proliferation”. Also, the “Irreversible Inhibition” value in data set [2] (20 μM inhibitor, then Amplex assay) was “yes”. The inhibition (commonly the drop in the measured response relative to a control, in per cent) at 20 µM in data set [2] (immobilized PXDN, 20 μM inhibitor without or with 10 μM hydrogen peroxide, read-out: inhibition of PXDN remaining after washing) is more than 95%. Further, the IC50 – broadly, the concentration needed to halve the response being measured – in data set [3] (100 μM bromide, 100 μM hydrogen peroxide, 1 h 37 °C, Western blot densitometry, read-out: IC50 DECM) was 950 nM; in data set [3] (read-out: IC50 inhibition of collagen IV cross-link formation in ECM model), approximately 950 nM; in data set [4] it was 500 nM. The “inhibition of MPO” value in data set [5] is “not to be inhibited”.

These data come from PMC10812467, “Peroxidasin Inhibition by Phloroglucinol and Other Peroxidase Inhibitors” (Antioxidants, 2023).
